Test: xn = mol fraction of the nth substance listed

COCCO + Cc1ccc(C)cc1
viscosity [mPa·s], 101 kPa
Settings	298.15 K	308.15 K
x1 = 0.0528	0.626	0.549
x1 = 0.1469	0.654	0.57
x1 = 0.2507	0.696	0.601
x1 = 0.3484	0.746	0.639
x1 = 0.4499	0.812	0.688
x1 = 0.4999	0.85	0.716
x1 = 0.5542	0.897	0.75
x1 = 0.6493	0.994	0.82
x1 = 0.7508	1.122	0.913
x1 = 0.8478	1.274	1.021
x1 = 0.9556	1.488	1.17

CCCC(=O)O + C1CCCCC1
303.15 K, 101 kPa
Settings	viscosity [mPa·s]
x2 = 0.101	1.196
x2 = 0.1921	1.069
x2 = 0.2875	0.9914
x2 = 0.3938	0.9189
x2 = 0.4993	0.867
x2 = 0.591	0.8407
x2 = 0.6993	0.7948
x2 = 0.8074	0.7912
x2 = 0.9011	0.7924

COCCO + C1CCCCC1
viscosity [mPa·s], 101 kPa
Settings	298.15 K	308.15 K
x1 = 0.054	0.905	0.75
x1 = 0.1506	0.923	0.757
x1 = 0.2513	0.95	0.773
x1 = 0.3532	0.989	0.797
x1 = 0.4508	1.037	0.829
x1 = 0.4955	1.062	0.847
x1 = 0.5513	1.098	0.873
x1 = 0.649	1.172	0.926
x1 = 0.7493	1.264	0.994
x1 = 0.8496	1.377	1.079
x1 = 0.9529	1.518	1.185

CC(=O)OCC(C)C + Cc1cccc(C)c1
viscosity [mPa·s], 101 kPa
Settings	x1 = 0.094	x1 = 0.1803	x1 = 0.2916	x1 = 0.3889	x1 = 0.4721	x1 = 0.5698	x1 = 0.6807	x1 = 0.7789	x1 = 0.8716	x1 = 0.9307
303.15 K	0.556	0.562	0.572	0.582	0.592	0.602	0.616	0.629	0.641	0.644
313.15 K	0.505	0.508	0.515	0.521	0.527	0.536	0.546	0.555	0.566	0.572

CCCCCCCBr + ClC(Cl)(Cl)Cl
viscosity [mPa·s], 101 kPa
Settings	293.15 K	303.15 K	313.15 K	323.15 K
x1 = 0.123	1.015	0.878	0.769	0.677
x1 = 0.259	1.045	0.905	0.797	0.705
x1 = 0.412	1.09	0.945	0.832	0.738
x1 = 0.584	1.13	0.982	0.865	0.767

COCCO + CC(C)CO
Settings	viscosity [mPa·s]
303.15 K, 101.3 kPa, x1 = 0.0962	2.478
303.15 K, 101.3 kPa, x1 = 0.2087	2.104
303.15 K, 101.3 kPa, x1 = 0.328	1.823
303.15 K, 101.3 kPa, x1 = 0.433	1.653
303.15 K, 101.3 kPa, x1 = 0.5976	1.493
303.15 K, 101.3 kPa, x1 = 0.6411	1.468
303.15 K, 101.3 kPa, x1 = 0.7261	1.431
303.15 K, 101.3 kPa, x1 = 0.8566	1.398
303.15 K, 101.3 kPa, x1 = 0.9229	1.391
308.15 K, 101.33 kPa, x1 = 0.1438	1.902
308.15 K, 101.33 kPa, x1 = 0.2792	1.664
308.15 K, 101.33 kPa, x1 = 0.3329	1.595
308.15 K, 101.33 kPa, x1 = 0.505	1.422
308.15 K, 101.33 kPa, x1 = 0.6648	1.32
308.15 K, 101.33 kPa, x1 = 0.7249	1.292
308.15 K, 101.33 kPa, x1 = 0.7936	1.264
308.15 K, 101.33 kPa, x1 = 0.8977	1.231

C1CCNCC1 + O
viscosity [mPa·s], 101 kPa
Settings	x1 = 0.05	x1 = 0.1	x1 = 0.2	x1 = 0.3	x1 = 0.35	x1 = 0.4	x1 = 0.6	x1 = 0.8
298.15 K	1.9	3.06	4.76	5.4	5.42	5.13	3.38	2.05
323.15 K	0.887	1.26	1.77	1.94	1.94	1.86	1.38	0.993

CCCC(=O)O + O=[N+]([O-])c1ccccc1
viscosity [mPa·s], 101 kPa
Settings	x2 = 0.1103	x2 = 0.2181	x2 = 0.3235	x2 = 0.4266	x2 = 0.5274	x2 = 0.6259	x2 = 0.7225	x2 = 0.8169	x2 = 0.9094
298.15 K	1.829	1.83	1.837	1.841	1.837	1.82	1.786	1.732	1.653
308.15 K	1.531	1.564	1.59	1.604	1.603	1.582	1.539	1.473	1.381
318.15 K	1.355	1.458	1.527	1.56	1.559	1.523	1.455	1.354	1.22

COCCO + CCO
viscosity [mPa·s], 101 kPa
Settings	x1 = 0.06304	x1 = 0.133	x1 = 0.206	x1 = 0.2876	x1 = 0.3771	x1 = 0.476	x1 = 0.5856	x1 = 0.7078	x1 = 0.8449
298.15 K	1.051	1.024	1.019	1.031	1.053	1.084	1.173	1.286	1.415
308.15 K	0.8342	0.8445	0.8576	0.8812	0.9063	0.9409	1.003	1.07	1.105
318.15 K	0.7622	0.7704	0.773	0.8002	0.847	0.868	0.911	0.923	0.9633

C#CC(C)(C)O + O
viscosity [mPa·s], 101.32 kPa
Settings	x1 = 0.1001	x1 = 0.2003	x1 = 0.3009	x1 = 0.4001	x1 = 0.5004	x1 = 0.602	x1 = 0.7044	x1 = 0.8017	x1 = 0.9005
308.15 K	1.612	2.02	2.2	2.289	2.308	2.297	2.254	2.21	2.152
313.15 K	1.403	1.78	1.92	1.973	1.986	1.968	1.928	1.898	1.838
318.15 K	1.24	1.56	1.67	1.7	1.719	1.712	1.669	1.643	1.582
323.15 K	1.105	1.369	1.45	1.483	1.498	1.486	1.449	1.424	1.376
